# Read-outs that look alike come from different tables or passages of the source.
# Key:
# [1] = system: MHC Class I expression in A2780 human ovarian cancer cells; assay: MHC Class I expression in A2780 cells after alpelisib, TTFields or both; type: cell-based; settings: TTFields (1.75V/cm and 200 kHz) plus 250 nM alpelisib for 72 h, then 72 h without drug under TTFields, vs untreated control and single treatments
# Procedure: A2780 human ovarian cancer cells (20,000 cells/well) were incubated for 144 h with the following conditions: Control untreated; 250 nM alpelisib (PI3K inhibitor) for 72 h—media containing the drug was removed, and fresh media without alpelisib was added for an additional 72 h incubation; TTFields (1.75V/cm and 200 kHz); TTFields plus 250 nM alpelisib for 72 h—media containing the drug was removed, and fresh media without alpelisib was added for an additional 72 h incubation under TTFields condition.
# [2] = system: MHC Class I expression in Panc02-luc mouse pancreatic cells; settings: TTFields (1.75V/cm and 150 kHz) plus 10 μM chloroquine, 72 h, vs untreated control
# Procedure: Panc02-luc mouse pancreatic cells (10,000 cells/well) were incubated for 72 h with the following conditions: Control untreated, 10 μM chloroquine (autophagy inhibitor), TTFields (1.75V/cm and 150 kHz), and TTFields plus 10 μM chloroquine.
# In FIG. 3, MHC Class I expression was evaluated in Panc02-luc mouse pancreatic cells (an orthotopic model of pancreatic cancer) following chloroquine (an autophagy inhibitor) treatment alone, TTFields application alone, and the combination of TTFields application with concomitant chloroquine treatment.
compound,measurement,setting,value
Cc1nc(NC(=O)N2CCC[C@H]2C(N)=O)sc1-c1ccnc(C(C)(C)C(F)(F)F)c1 [alpelisib],MHC Class I expression,[1],greater than in the untreated control group as well as in the single treatment groups
same,MHC Class I expression,[1]; listed as Alpelisib,increased with concomitant Alpelisib treatment
CCN(CC)CCCC(C)Nc1ccnc2cc(Cl)ccc12 (stereo not shown) [chloroquine],MHC Class I expression,[2],increased significantly above the untreated cells
same,MHC Class I expression,[2]; listed as Chloroquine,increased with concomitant Chloroquine treatment
